The values below come from ChEMBL document CHEMBL5260849, “Current advances in Vibrio harveyi quorum sensing as drug discovery targets” (Eur J Med Chem, 2020).

As usually defined, the inhibition is the drop in the measured response relative to a control, in per cent. By MIC is commonly meant the lowest concentration that inhibits growth of the organism.

≈ marks a conversion by molar mass, not a printed value.

Test [1] deals with Vibrio harveyi. In words: Antimicrobial activity against Vibrio harveyi MM30 assessed as decrease in swimming motility at 200 ug/ml incubated for 15 hrs by agar plate reader analysis. To be noted: dose 200 µg/ml. The format is functional. On the set-up: scale not given: the % may be the effect or the level left.
The test system of test [2] is Vibrio harveyi. Briefly: Inhibition of biofilm formation in Vibrio harveyi BB152 at 200 ug/ml for 24 hrs by crystal violet assay. In kind it is functional.
The test system of test [3] is Vibrio harveyi. In words: Inhibition of biofilm formation in Vibrio harveyi MM77 assessed as inhibition of exopolysaccharides production at 200 uM incubated for 24 hrs by Fluorescence assay. The format is functional.
Test [4] in a line: Inhibition of quorum-sensing system in Vibrio harveyi BB170 assessed as inhibition of QS-mediated bioluminescence at 0.02 to 200 uM incubated for 18 hrs by Luminescence assay. As to conditions: dose 0.02-200 µM.
The subject of test [5] is Vibrio harveyi. In words: Antimicrobial activity against Vibrio harveyi BB120 assessed as decrease in swimming motility at 200 ug/ml incubated for 15 hrs by agar plate reader analysis. On the set-up: scale not given: the % may be the effect or the level left. In kind it is functional. To be noted: dose 200 µg/ml.
Test [6] in a line: Inhibition of quorum-sensing system in Vibrio harveyi BB152 assessed as inhibition of QS-mediated bioluminescence at 0.02 to 200 uM incubated for 18 hrs by Luminescence assay. As to conditions: dose 0.02-200 µM.
A short description of test [7]: Inhibition of quorum-sensing system in Vibrio harveyi MM77 assessed as inhibition of QS-mediated bioluminescence at 0.02 to 200 uM incubated for 18 hrs by Luminescence assay. As to conditions: dose 0.02-200 µM.
In test [8] the test system is Vibrio harveyi. Briefly: Antimicrobial activity against Vibrio harveyi BB152 assessed as decrease in swimming motility at 200 ug/ml incubated for 15 hrs by agar plate reader analysis. As to conditions: dose 200 µg/ml. In kind it is functional. Also on record: scale not given: the % may be the effect or the level left.
In test [9] the test system is Vibrio harveyi. Briefly: Antibacterial activity against Vibrio harveyi infected […] franciscana assessed as increase in survival rate at 20 uM and measured after 60 hrs by light microscopy. In kind it is functional.
The nature of test [10]: Inhibition of quorum-sensing system in Vibrio harveyi assessed as inhibition of bioluminescence at 20 uM by bioluminescence assay.
Test [11] is described as follows: Inhibition of quorum sensing system in Vibrio harveyi MTCC 3438 assessed fold decrease in luxR expression at 250 ug/ml by qPCR assay. To be noted: dose 250.0 µg/ml. Background: Quantitative PCR measures a nucleic acid by following its amplification.
Test [12] deals with Vibrio harveyi. Briefly: Antibacterial activity against Vibrio harveyi MTCC 3438 assessed as reduction in cell surface hydrophobicity at 250 ug/ml for 10 mins by BATH assay. To be noted: MTCC 3438, 10 min. The format is functional.
The subject of test [13] is Vibrio harveyi. Briefly: Inhibition of biofilm formation in Vibrio harveyi MTCC 3438 assessed as reduction in exopolysaccharides production at 250 ug/ml for 24 hrs by spectrophotometric assay. In kind it is functional.
A short description of test [14]: Inhibition of quorum sensing system in Vibrio harveyi MTCC 3438 assessed fold decrease in luxP expression at 250 ug/ml by qPCR assay. To be noted: dose 250.0 µg/ml.
Test [15] relates to Vibrio harveyi. Briefly: Antibiofilm activity against Vibrio harveyi MTCC 3438 assessed as inhibition of biofilm formation at 250 ug/ml for 16 hrs by crystal violet staining based spectrophotometric assay. The format is functional.
A short description of test [16]: Inhibition of quorum sensing system in Vibrio harveyi MTCC 3438 assessed fold decrease in luxQ expression at 250 ug/ml by qPCR assay. To be noted: dose 250.0 µg/ml.
Test [17] is described as follows: Inhibition of quorum sensing system in Vibrio harveyi MTCC 3438 assessed fold decrease in luxO expression at 250 ug/ml by qPCR assay. As to conditions: dose 250.0 µg/ml.
Test [18] in a line: Inhibition of quorum sensing system in Vibrio harveyi MTCC 3438 assessed fold decrease in luxS expression at 250 ug/ml by qPCR assay. As to conditions: dose 250.0 µg/ml.
The subject of test [19] is Vibrio harveyi. In words: Antibacterial activity against Vibrio harveyi MTCC 3438 infected Litopenaeus vannamei larvae assessed as increase in survival rate at 250 ug/ml and measured upto 96 hrs. The format is functional.
The subject of test [20] is Vibrio harveyi. In words: Antibacterial activity against Vibrio harveyi MTCC 3438 assessed as bacterial growth inhibition incubated for 24 hrs by broth microdilution assay. In kind it is functional. (In general: Broth dilution looks for growth in wells or tubes with falling amounts of substance.)
In test [21] the test system is Vibrio harveyi. In words: Antibiofilm activity against Vibrio harveyi BB170 assessed as inhibition of biofilm formation at 200 uM by Crystal violet biofilm assay. The format is functional.

Take `CCCCCCC(C)(C)c1cc(O)c2c(c1)OC(C)(C)[C@@H]1CC=C(CO)C[C@@H]21`: the Activity is given as 95% in the test on Vibrio harveyi [1], 80% in the test with Vibrio harveyi [5] and 85% with Vibrio harveyi [8]. Further, in the test with Vibrio harveyi [2], the inhibition at 200 µg/mL stood at 80%. For the same compound, the inhibition at 200 µM in the test on Vibrio harveyi [3] was found to be 75%. Besides, the inhibition in test [4] was determined as 85%; in test [6] it was 98%; in [7] it was 95%.

For `O=S(=O)(c1ccc(Br)s1)n1cccn1`, in the test on Vibrio harveyi [9], the survival at 20 µM was found to be 85.5%. Besides, the inhibition in test [10] was 100%.

As to `Cc1cc(C(C)(C)C)c(O)c(C(C)(C)C)c1` [BUTYLATED HYDROXYTOLUENE], the fold change (FC) in test [11] was determined as 1.9; in [14], 0.7; in test [16], 0.5; in test [17] it was 0.1; in test [18] it was 0.9. Also, the inhibition at 250 µg/mL worked out at 82% in the test on Vibrio harveyi [12], 65% with Vibrio harveyi [13] and 80% with Vibrio harveyi [15]. In the test on Vibrio harveyi [19], the survival at 250 µg/mL was 75%.

Turning to `O=C(O)[C@@H]1[C@H](C(=O)O)[C@@H]2C=C[C@H]1C2`, in the test with Vibrio harveyi [20], the MIC was found to be 8 µg/mL (≈ 43.9 µM).

For the compound `CC(=O)C(=O)C(F)CO` (stereo unspecified), the inhibition at 200 µM in the test on Vibrio harveyi [21] came to 90%.
